Experimental data published in US7491501B2, “Methods for identifying modulators of intracellular aggregate formation” (Auburn University, priority 2003, dated 2009).

How the values were obtained:
[1] = test system: p62 aggregates in HEK cells; experiment: p62 aggregate formation by confocal/fluorescence microscopy in transfected HEK cells; assay type: cell-based, Human
Experimental: Immunofluorescence staining—All steps were done at room temperature unless stated otherwise. The inclusion bodies were placed on poly-L-lysine coated 12 well slides (Cel-line/Erie Scientific Co., Portmouth, N.H.) and let partially dry. Inclusion bodies on the slides were fixed for 10 min in 3% paraformaldehyde (Electron Microscopy Sciences, Fort Washington, Pa.) and permeabilized with 0.1% Triton X-100 in PBS for 15 minutes. The inclusion bodies were incubated in blocking buffer (3% non fat dry milk in PBS) for 1 h, prior to incubation with primary antibodies at 4° C. overnight. After washing with PBS, the secondary antibody (Molecular Probes Inc., Eugene, Oreg.) in blocking buffer was applied for 1 h. After extensive washing in PBS, the samples were mounted using Vectashield (Vector Laboratories Inc., Burlingame, Calif.). The cells were fixed with 3% paraformaldehyde and processed similar to that of inclusion staining.
Cells were incubated with rabbit anti-myc IgG or mouse anti-HA IgG and labeled with Texas Red-conjugated anti-rabbit antibodies (red) or Oregon Green-conjugated anti-mouse antibodies (green), respectively. Merged images with overlapping immunoreactivity are shown in yellow. Note that cells expressing p62 lacking its UBA domain (p62ΔUBA) fail to form aggregates or to colocalize with ubiquitin. All experiments were replicated three independent times with similar results. Small aggregates of p62 colocalized with ubiquitin which was dependant upon the presence of a UBA domain but not the N-terminal portion of p62. Aggregation may impair the proteasome or, alternatively, impaired proteasome activity may seed aggregates. Alternatively, impairment of the proteasome may enhance the formation of p62 aggregates containing polyubiquitin.
In summary, through its UBA domain, p62 Interacts with polyubiquitinated substrates, and the UBA domain is necessary for aggregate formation.
Since TRAF6 localized to the large aggregates along with polyubiquitin (FIG. 2B), these aggregates may represent the failed attempt of the cell to rid itself of TRAF6-K63-polyubiquitinated substrates sequestered through interaction with the UBA domain. […] Altogether, these findings reveal that p62 binds proteins with K63 chains through its UBA domain and that p62 aggregates sequester TRAF6 as well as K63-polyubiquitinated substrates.
To further determine if the coassociation of tau-p62-TRAF6 and UbcH7 could be recapitulated in vitro, a cotransfection approach was undertaken. […] HEK cells were transfected with GFP-p62 followed by treatment or not with Aβ1-42 and Aβ42-1 peptides. […] This is consistent with the observation that microtubule dependent transport is important for the formation of p62 inclusions as assessed by treatment of the cells with nocodazole, a microtubule disrupting agent (9).

[2] = test system: tau polyubiquitination; experiment: NGF-induced tau polyubiquitination in PC12 cells (FIG. 13A); assay type: cell-based; conditions: control not shown
Experimental: The region spanning amino acids 225-251 is necessary for the interaction of p62 with TRAF6. The peptide containing TRAF6 binding motif in p62 along with the hydrophobic sequence containing the cell-permeable motif from Kaposi fibroblast growth factor sequence, […]-[…] (SEQ ID NO. 4) and control peptide […]-[…] (SEQ ID NO. 5) was synthesized. As a preliminary step, PC12 cells were pretreated with various concentrations of peptide for 5 h, followed by NGF stimulation for 15 min and immunoprecipitation with TRAF6 and western blotted with p62. […] The peptide was then tested for its ability to block NGF-induced tau polyubiquitination (FIG. 13A).

[3] = test system: TrkA; experiment: NGF-dependent TrkA ubiquitination and TrkA complex formation in PC12 cells (FIG. 15B, 15C); assay type: cell-based; conditions: TrkA immunoprecipitation
Experimental: The peptide containing the TRAF6-binding motif in p62 along with the hydrophobic sequence containing the cell-permeable motif from Kaposi fibroblast growth factor signal sequence […]-[…] (SEQ ID NO. 4) and control peptide […]-[…] (SEQ ID NO. 5) was synthesized. As a preliminary step, PC12 cells were pretreated with different concentrations (75-300 μM) of TRAF6 peptide for 5 hours followed by NGF stimulation for 15 min and immunoprecipitation of TRAF6 followed by Western blotting for p62. […] To address whether TRAF6 peptide affects the interaction of p62 and UbcH7 with TRAF6, PC12 cells were treated with or without 150 μM of control peptide or TRAF6 peptide for 5 hours and then stimulated with NGF for 15 min. By immunoprecipitating TRAF6, TRAF6 peptide (150 μM) abrogated the interaction of p62 with TRAF6, but not UbcH7, upon NGF treatment (FIG. 8A). […] The ability of the TRAF6 peptide to impair the ubiquitination process was investigated. Lysates recovered from NGF treated cells were immunoprecipitated with TrkA receptor antibody and blotted for ubiquitin or the receptor (FIG. 15B). […] The ability of the peptide to interrupt the formation of the functional TrkA-p62-TRAF6-UbcH7 complex on NGF stimulation as well was also investigated. TrkA was immunoprecipitated and blotted for the presence of each protein in the complex (FIG. 15C).

[4] = test system: internalization of NGF by PC12 cells; experiment: Internalization of NGF, 125I-NGF binding assay in PC12 cells (FIG. 15D); assay type: cell-based; conditions: PC12 cells pretreated with peptide (150 μM); control not shown
Experimental: Additionally, PC12 cells were pretreated or not with TRAF6 peptide (150 μM) followed by measurement of internalized receptor employing 125I-NGF binding assay (FIG. 15D). […] Similarly, the level of internalized NGF was measured in PC12 cells transfected with wild-type ubiquitin, K48R or K63R ubiquitin mutants (FIG. 15E). Transfection of ubiquitin, or K48R mutant was without any effect on internalization of NGF. By comparison, transfection of K63R ubiquitin mutant totally abrogated internalization of the ligand. […] Thus, p62 serves as an adaptor, as well as, a scaffold for TRAF6-directed ubiquitination and K63 chains play a signaling role for internalization and sorting of the receptor.

## AAVALLPAVLLALLAP-ESASGPSEDPSVNFLK (AAVALLPAVLLALLAPESASGPSEDPSVNFLK; artificial sequence for cell permeable peptide) [TRAF6 peptide]
[1]; pretreatment with inhibitory dose of peptide prior to ALLN, GFP-p62 HEK cells
  reduction in the formation of large aggregates: 60%
[1]; pretreatment with peptide prior to ALLN (FIG. 2D), control peptide data not shown
  effect on size of the p62 aggregates: decrease in the size of the p62 aggregates
[2]
  NGF-induced tau polyubiquitination: completely abrogated
[3]; NGF stimulation
  TRAF6 and UbcH7 interacting with TrkA: eliminated
  interaction of p62 and TrkA: did not disrupt
[3]; NGF treated
  NGF-dependent ubiquitination of TrkA: effectively abolish
[4]
  internalization of NGF: significantly blocked
